Measured values published in publication PMC5218480 (PLoS ONE, 2017).

Test system: MV-4-11 cells
Test: Gene expression microarray analysis (Affymetrix PrimeView) and GSEA
Type: cell-based, human
Set-up: RFU PODN (11730768_x_at) / Fold change /veh PODN (11730768_x_at) / RFU LINC00158 (11744669_a_at) / Fold change /veh LINC00158 (11744669_a_at) / RFU DUSP10 (11751237_a_at) / Fold change /veh DUSP10 (11751237_a_at) / RFU ID3 (11757404_x_at) / Fold change /veh ID3 (11757404_x_at) / RFU PLEKHG5 (11737974_s_at) / Fold change /veh PLEKHG5 (11737974_s_at) / RFU LRRC4B (11730491_at) / Fold change /veh LRRC4B (11730491_at) / RFU GIMAP4 (11747438_a_at) / Fold change /veh GIMAP4 (11747438_a_at) / RFU KRT8 (11758183_x_at) / Fold change /veh KRT8 (11758183_x_at) / RFU CNN1 (11734310_a_at) / Fold change /veh CNN1 (11734310_a_at) / RFU VPS37D (11726825_at) / Fold change /veh VPS37D (11726825_at) / RFU C10orf10 (11716522_x_at) / Fold change /veh C10orf10 (11716522_x_at) / RFU KIR2DL2 /// KIR2DL4 /// KIR2DL5A /// KIR2DL5B /// KIR2DS1 /// KIR2DS2 /// KIR2DS3 /// KIR2DS4 /// KIR3DL3 /// KIR3DL3 /// KIR3DS1 (11738374_at) / Fold change /veh KIR2DL2 /// KIR2DL4 /// KIR2DL5A /// KIR2DL5B /// KIR2DS1 /// KIR2DS2 /// KIR2DS3 /// KIR2DS4 /// KIR3DL3 /// KIR3DL3 /// KIR3DS1 (11738374_at) / RFU C1QL1 (11718748_at) / Fold change /veh C1QL1 (11718748_at) / RFU TMPRSS4 (11747572_a_at) / Fold change /veh TMPRSS4 (11747572_a_at) / RFU HAMP (11756126_x_at) / Fold change /veh HAMP (11756126_x_at) / RFU RNFT2 (11725882_a_at) / Fold change /veh RNFT2 (11725882_a_at) / RFU NR4A2 (11747474_a_at) / Fold change /veh NR4A2 (11747474_a_at) / RFU ABCC12 (11746883_a_at) / Fold change /veh ABCC12 (11746883_a_at) / RFU TMEM136 (11760407_x_at) / Fold change /veh TMEM136 (11760407_x_at) / RFU CLDN22 /// WWC2 (11732394_at) / Fold change /veh CLDN22 /// WWC2 (11732394_at) / RFU HLA-DPB1 (11760878_x_at) / Fold change /veh HLA-DPB1 (11760878_x_at) / RFU SPINT1 (11716480_a_at) / Fold change /veh SPINT1 (11716480_a_at) / RFU GAP43 (11754022_s_at) / Fold change /veh GAP43 (11754022_s_at) / RFU A4GNT (11735810_at) / Fold change /veh A4GNT (11735810_at) / RFU PRB3 (11715151_x_at) / Fold change /veh PRB3 (11715151_x_at) / RFU TUBB4B (11761932_at) / Fold change /veh TUBB4B (11761932_at) / RFU CAPN14 (11732068_a_at) / Fold change /veh CAPN14 (11732068_a_at) / RFU TMCC2 (11721928_a_at) / Fold change /veh TMCC2 (11721928_a_at) / RFU IRGQ (11745062_a_at) / Fold change /veh IRGQ (11745062_a_at) / RFU FAM174B (11720279_a_at) / Fold change /veh FAM174B (11720279_a_at) / RFU TMPRSS4 (11748680_a_at) / Fold change /veh TMPRSS4 (11748680_a_at) / RFU FAM212B (11763350_a_at) / Fold change /veh FAM212B (11763350_a_at) / RFU PLEKHG5 (11743358_a_at) / Fold change /veh PLEKHG5 (11743358_a_at) / RFU ZSCAN30 (11745921_a_at) / Fold change /veh ZSCAN30 (11745921_a_at) / RFU CMKLR1 (11741424_a_at) / Fold change /veh CMKLR1 (11741424_a_at) / RFU LOC101060620 /// MAPK8IP1 (11723275_at) / Fold change /veh LOC101060620 /// MAPK8IP1 (11723275_at) / RFU SPTSSB (11747773_x_at) / Fold change /veh SPTSSB (11747773_x_at) / RFU PRSS12 (11739890_at) / Fold change /veh PRSS12 (11739890_at) / RFU BIN1 (11741810_x_at) / Fold change /veh BIN1 (11741810_x_at) / RFU WNT11 (11732464_a_at) / Fold change /veh WNT11 (11732464_a_at) / RFU C10orf10 (11716521_a_at) / Fold change /veh C10orf10 (11716521_a_at) / RFU C5orf56 (11738089_at) / Fold change /veh C5orf56 (11738089_at) / RFU CYB561 (11721691_x_at) / Fold change /veh CYB561 (11721691_x_at) / RFU ANKRD19P (11752326_a_at) / Fold change /veh ANKRD19P (11752326_a_at) / RFU OR2T12 /// OR2T33 /// OR2T8 (11738714_s_at) / Fold change /veh OR2T12 /// OR2T33 /// OR2T8 (11738714_s_at) / RFU VCAN (11748164_a_at) / Fold change /veh VCAN (11748164_a_at) / RFU JSRP1 (11732532_at) / Fold change /veh JSRP1 (11732532_at) / RFU KRTAP10-11 (11738290_x_at) / Fold change /veh KRTAP10-11 (11738290_x_at) / RFU MYO3A (11730013_a_at) / Fold change /veh MYO3A (11730013_a_at) / RFU EBF3 (11725865_a_at) / Fold change /veh EBF3 (11725865_a_at) / RFU CAMK2N1 (11719241_x_at) / Fold change /veh CAMK2N1 (11719241_x_at) / RFU C5orf56 (11738088_a_at) / Fold change /veh C5orf56 (11738088_a_at) / RFU OLFML3 (11715873_a_at) / Fold change /veh OLFML3 (11715873_a_at) / RFU LOC100653217 /// NTM (11731650_a_at) / Fold change /veh LOC100653217 /// NTM (11731650_a_at) / RFU MAPK11 (11762145_a_at) / Fold change /veh MAPK11 (11762145_a_at) / RFU FIZ1 (11724087_x_at) / Fold change /veh FIZ1 (11724087_x_at) / RFU OASL (11726364_x_at) / Fold change /veh OASL (11726364_x_at) / RFU SOX15 (11748057_x_at) / Fold change /veh SOX15 (11748057_x_at) / RFU CD79A (11719716_a_at) / Fold change /veh CD79A (11719716_a_at) / RFU HIST1H1D (11736915_at) / Fold change /veh HIST1H1D (11736915_at) / RFU CASKIN2 (11723855_a_at) / Fold change /veh CASKIN2 (11723855_a_at) / RFU LOC730098 (11760151_x_at) / Fold change /veh LOC730098 (11760151_x_at) / RFU OR4N2 (11742367_at) / Fold change /veh OR4N2 (11742367_at) / RFU PRRT2 (11749266_a_at) / Fold change /veh PRRT2 (11749266_a_at) / RFU SNX32 (11753110_a_at) / Fold change /veh SNX32 (11753110_a_at) / RFU CDHR5 (11726645_a_at) / Fold change /veh CDHR5 (11726645_a_at) / RFU RCAN1 (11760418_a_at) / Fold change /veh RCAN1 (11760418_a_at) / RFU FAM167A (11723789_a_at) / Fold change /veh FAM167A (11723789_a_at) / RFU FAM26E (11764081_at) / Fold change /veh FAM26E (11764081_at) / RFU ISYNA1 (11749810_s_at) / Fold change /veh ISYNA1 (11749810_s_at) / RFU ACY1 (11761880_at) / Fold change /veh ACY1 (11761880_at) / RFU 11764098_at / Fold change /veh 11764098_at / RFU SAMD14 (11745864_x_at) / Fold change /veh SAMD14 (11745864_x_at) / RFU NPB (11741838_a_at) / Fold change /veh NPB (11741838_a_at) / RFU TMPRSS6 (11731388_a_at) / Fold change /veh TMPRSS6 (11731388_a_at) / RFU KRTAP10-2 (11738614_at) / Fold change /veh KRTAP10-2 (11738614_at) / RFU ARHGAP8 /// PRR5-ARHGAP8 (11727945_x_at) / Fold change /veh ARHGAP8 /// PRR5-ARHGAP8 (11727945_x_at) / RFU KRTAP5-7 /// NADSYN1 (11734609_at) / Fold change /veh KRTAP5-7 /// NADSYN1 (11734609_at) / RFU RASL12 (11751679_a_at) / Fold change /veh RASL12 (11751679_a_at) / RFU CDKN2B (11736163_a_at) / Fold change /veh CDKN2B (11736163_a_at) / RFU PRF1 (11729649_at) / Fold change /veh PRF1 (11729649_at) / RFU, ZNF638 /// ZNF638-IT1 / Fold change vs veh, ZNF638 /// ZNF638-IT1 / RFU, PANK3 / Fold change vs veh, PANK3 / RFU, SH3YL1 / Fold change vs veh, SH3YL1 / RFU, ZEB2 / Fold change vs veh, ZEB2 / RFU, NRIP1 / Fold change vs veh, NRIP1 / RFU, PTTG1IP / Fold change vs veh, PTTG1IP / RFU, CAPN2 / Fold change vs veh, CAPN2 / RFU, MED14 / Fold change vs veh, MED14 / RFU, SNORA58 / Fold change vs veh, SNORA58 / RFU, C1orf63 / Fold change vs veh, C1orf63 / RFU, LRRFIP1 / Fold change vs veh, LRRFIP1 / RFU, NDUFAF7 / Fold change vs veh, NDUFAF7 / RFU, SLC12A2 / Fold change vs veh, SLC12A2 / RFU, IBTK / Fold change vs veh, IBTK / RFU, ESF1 / Fold change vs veh, ESF1 / Fold change vs veh, TMEM50B / RFU, TAOK1 / Fold change vs veh, TAOK1 / RFU, ACBD3 / Fold change vs veh, ACBD3 / RFU, TMA16 / Fold change vs veh, TMA16 / RFU, RWDD3 / Fold change vs veh, RWDD3 / RFU, BCAT1 / Fold change vs veh, BCAT1 / RFU, EDEM3 / Fold change vs veh, EDEM3 / RFU, TMEM33 / Fold change vs veh, TMEM33 / RFU, WDR75 / Fold change vs veh, WDR75 / RFU, AHCTF1 / Fold change vs veh, AHCTF1 / RFU, TFRC / Fold change vs veh, TFRC / RFU, ZDHHC17 / Fold change vs veh, ZDHHC17 / RFU, NOM1 / Fold change vs veh, NOM1 / RFU, ARL8B / Fold change vs veh, ARL8B / RFU, ZBTB11 / Fold change vs veh, ZBTB11 / RFU, TAMM41 / Fold change vs veh, TAMM41 / RFU, KIAA1704 /// LOC100996395 / Fold change vs veh, KIAA1704 /// LOC100996395 / RFU, ING1 / Fold change vs veh, ING1 / RFU, TRMT61B / Fold change vs veh, TRMT61B / RFU, FUBP3 / Fold change vs veh, FUBP3 / RFU, TP53 / Fold change vs veh, TP53 / RFU, TNKS2 / Fold change vs veh, TNKS2 / RFU, ZFP14 / Fold change vs veh, ZFP14 / RFU, ACTR2 / Fold change vs veh, ACTR2 / RFU, PPP3R1 / Fold change vs veh, PPP3R1 / RFU, PIK3R1 / Fold change vs veh, PIK3R1 / RFU, HNRNPA1 / Fold change vs veh, HNRNPA1 / RFU, RNF170 / Fold change vs veh, RNF170 / RFU, ZNF28 / Fold change vs veh, ZNF28 / RFU, RNGTT / Fold change vs veh, RNGTT / RFU, OGT / Fold change vs veh, OGT / RFU, BRD1 / Fold change vs veh, BRD1 / RFU, MARS / Fold change vs veh, MARS / RFU, ZNF655 / Fold change vs veh, ZNF655 / RFU, FAHD1 / Fold change vs veh, FAHD1 / RFU, BDP1 / Fold change vs veh, BDP1 / RFU, LRRCC1 / Fold change vs veh, LRRCC1 / RFU, ARID1A / Fold change vs veh, ARID1A / RFU, ZNF146 / Fold change vs veh, ZNF146 / RFU, ZNF330 / Fold change vs veh, ZNF330 / RFU, GPN3 / Fold change vs veh, GPN3 / RFU, C9orf123 / Fold change vs veh, C9orf123 / RFU, N4BP2L2 / Fold change vs veh, N4BP2L2 / RFU, ARFIP1 / Fold change vs veh, ARFIP1 / RFU, FAM179B / Fold change vs veh, FAM179B / RFU, BCL10 / Fold change vs veh, BCL10 / RFU, UHRF1BP1L / Fold change vs veh, UHRF1BP1L / RFU, BET1 / Fold change vs veh, BET1 / RFU, CNOT2 / Fold change vs veh, CNOT2 / RFU, ZNF268 / Fold change vs veh, ZNF268 / Fold change vs veh, ZNF507 / RFU, DGCR2 / Fold change vs veh, DGCR2 / RFU, WDSUB1 / Fold change vs veh, WDSUB1 / Fold change vs veh, HSP90B1 /// MIR3652 / RFU, ADSS / Fold change vs veh, ADSS / RFU, GK / Fold change vs veh, GK / RFU, ZNF148 / Fold change vs veh, ZNF148 / RFU, TAF9 / Fold change vs veh, TAF9 / RFU, SLC1A5 / Fold change vs veh, SLC1A5 / RFU, SLMO2 / Fold change vs veh, SLMO2 / RFU, ABCC4 / Fold change vs veh, ABCC4 / RFU, LOC101060439 /// RAP1B / Fold change vs veh, LOC101060439 /// RAP1B / RFU, RFX7 / Fold change vs veh, RFX7 / RFU, GTPBP10 / Fold change vs veh, GTPBP10 / RFU, CNEP1R1 / Fold change vs veh, CNEP1R1 / RFU, BIVM-ERCC5 /// ERCC5 / Fold change vs veh, BIVM-ERCC5 /// ERCC5 / RFU, ILF3 / Fold change vs veh, ILF3 / RFU 11762660_at / Fold change /veh 11762660_at / RFU VCAN (11757783_s_at) / Fold change /veh VCAN (11757783_s_at) / RFU DDX43 (11728927_at) / Fold change /veh DDX43 (11728927_at) / RFU KRT8 (11758188_x_at) / Fold change /veh KRT8 (11758188_x_at) / RFU NKD1 (11759106_at) / Fold change /veh NKD1 (11759106_at) / RFU SRD5A1 (11742802_a_at) / Fold change /veh SRD5A1 (11742802_a_at) / RFU TPSAB1 /// TPSB2 (11721975_s_at) / Fold change /veh TPSAB1 /// TPSB2 (11721975_s_at) / RFU GSTM3 (11746129_a_at) / Fold change /veh GSTM3 (11746129_a_at) / RFU IL23R (11737362_x_at) / Fold change /veh IL23R (11737362_x_at) / RFU TMEM51 (11727254_a_at) / Fold change /veh TMEM51 (11727254_a_at) / RFU PIWIL2 (11732686_x_at) / Fold change /veh PIWIL2 (11732686_x_at) / RFU ORM1 (11744905_x_at) / Fold change /veh ORM1 (11744905_x_at) / RFU CCDC152 (11743942_at) / Fold change /veh CCDC152 (11743942_at) / RFU ECM1 (11717891_a_at) / Fold change /veh ECM1 (11717891_a_at) / RFU IL23R (11748794_a_at) / Fold change /veh IL23R (11748794_a_at) / RFU TNFAIP8L3 (11732012_x_at) / Fold change /veh TNFAIP8L3 (11732012_x_at) / RFU MBOAT4 (11741988_at) / Fold change /veh MBOAT4 (11741988_at) / RFU 11764193_at / Fold change /veh 11764193_at / RFU TMEM53 (11763286_at) / Fold change /veh TMEM53 (11763286_at) / RFU MAGEB2 (11727129_at) / Fold change /veh MAGEB2 (11727129_at) / RFU TMEM200A (11744735_a_at) / Fold change /veh TMEM200A (11744735_a_at) / RFU CCDC152 (11751479_a_at) / Fold change /veh CCDC152 (11751479_a_at) / RFU FAM211A (11726209_a_at) / Fold change /veh FAM211A (11726209_a_at) / RFU RGS16 (11746705_a_at) / Fold change /veh RGS16 (11746705_a_at) / RFU VCAN (11755009_s_at) / Fold change /veh VCAN (11755009_s_at) / RFU RHOB (11743442_s_at) / Fold change /veh RHOB (11743442_s_at) / RFU RGS16 (11720943_a_at) / Fold change /veh RGS16 (11720943_a_at) / RFU RGS16 (11720944_at) / Fold change /veh RGS16 (11720944_at) / RFU, VPS4B / Fold change vs veh, VPS4B / RFU, CREB1 / Fold change vs veh, CREB1 / RFU, DNAJC13 / Fold change vs veh, DNAJC13 / RFU, GNAQ / Fold change vs veh, GNAQ / RFU, CDK5R1 / Fold change vs veh, CDK5R1 / RFU, ZRANB3 / Fold change vs veh, ZRANB3 / RFU, CUL4A / Fold change vs veh, CUL4A / RFU, CCNY / Fold change vs veh, CCNY / RFU, UFL1 / Fold change vs veh, UFL1 / RFU, COG3 / Fold change vs veh, COG3 / RFU, DIAPH2 / Fold change vs veh, DIAPH2 / RFU, SKA2 / Fold change vs veh, SKA2 / RFU, AFF3 / Fold change vs veh, AFF3 / RFU, LMF1 / Fold change vs veh, LMF1 / RFU, IPO11 / Fold change vs veh, IPO11 / RFU, DFFB / Fold change vs veh, DFFB / RFU, FOXP1 / Fold change vs veh, FOXP1 / RFU, CARD8 / Fold change vs veh, CARD8 / RFU, STRN3 / Fold change vs veh, STRN3 / RFU, ADK / Fold change vs veh, ADK / RFU, RASSF2 / Fold change vs veh, RASSF2 / RFU, WIPF1 / Fold change vs veh, WIPF1 / RFU, LARP1B / Fold change vs veh, LARP1B / RFU, RASA1 / Fold change vs veh, RASA1 / RFU, RB1 / Fold change vs veh, RB1 / RFU, PPFIA1 / Fold change vs veh, PPFIA1 / RFU, MAT2A / Fold change vs veh, MAT2A / RFU, CCT5 / Fold change vs veh, CCT5 / RFU, WDR92 / Fold change vs veh, WDR92 / RFU, CUX1 / Fold change vs veh, CUX1 / RFU, TTC7A / Fold change vs veh, TTC7A / RFU, TMEM135 / Fold change vs veh, TMEM135 / RFU, DEPTOR / Fold change vs veh, DEPTOR / RFU, CPM / Fold change vs veh, CPM / RFU, DNAJB6 / Fold change vs veh, DNAJB6 / RFU, CACNA2D3 / Fold change vs veh, CACNA2D3 / RFU, DTX4 / Fold change vs veh, DTX4 / RFU, TFCP2 / Fold change vs veh, TFCP2 / RFU, GMCL1 /// GMCL1P1 / Fold change vs veh, GMCL1 /// GMCL1P1 / RFU, AEBP2 / Fold change vs veh, AEBP2 / RFU, SNHG1 /// SNORD22 /// SNORD25 /// SNORD26 /// SNORD27 /// SNORD28 /// SNORD29 /// SNORD31 / Fold change vs veh, SNHG1 /// SNORD22 /// SNORD25 /// SNORD26 /// SNORD27 /// SNORD28 /// SNORD29 /// SNORD31 / Fold change (Aza/veh), C12orf56 (ProbeSet 11735607_a_at) / Fold change (ACY-1035/veh), C12orf56 (ProbeSet 11735607_a_at) / Fold change (Aza/veh), FGFR1OP (ProbeSet 11751329_s_at) / Fold change (ACY-1035/veh), FGFR1OP (ProbeSet 11751329_s_at) / Fold change (Aza/veh), VPS36 (ProbeSet 11739960_a_at) / Fold change (ACY-1035/veh), VPS36 (ProbeSet 11739960_a_at) / RFU SYPL1 (11715823_x_at) / Fold change /veh SYPL1 (11715823_x_at) / RFU IGFBP7 (11715501_s_at) / Fold change /veh IGFBP7 (11715501_s_at) / RFU REEP3 (11722064_at) / Fold change /veh REEP3 (11722064_at) / RFU IGLL1 (11728026_x_at) / Fold change /veh IGLL1 (11728026_x_at): dose or concentration left out as unconfirmed
Conditions: MV-4-11 cells, 48 hours

Nc1ncn([C@@H]2O[C@H](CO)[C@@H](O)[C@H]2O)c(=O)n1 [azacitidine]
RFU PODN (11730768_x_at): 27.35 RFU
